According to patent US9579328B2, “Prostaglandin and vasoconstrictor pharmaceutical compositions and methods of use” (ALLERGAN, INC., priority 2012, dated 2017):
Counter-ions that a name gives are not always drawn.

Key:
[1] = system: eyes of conscious Beagle dogs; details: cited from earlier work; for conjunctival hyperemia or adverse ocular effects at baseline (time 0): 1% (w/v) topical, dog eyes; for effect of L-NAME on elicited ocular surface hyperemia: L-NAME 1% treated eyes, 0-6 h
[2] = system: rabbit isolated jugular veins; experiment: Vasorelaxation in histamine-precontracted rabbit isolated jugular veins; type: cell-based
Description: FIG. 3. Concentration-response curves for (FIG. 3A) bimatoprost and (FIG. 3B) latanoprost free acid in histamine-precontracted endothelium-intact and endothelium-denuded rabbit isolated jugular veins. Results are expressed as mean±S.E.M. of 5-6 animals. FIG. 3A adapted from Chen J et al., Invest Ophthalmol Vis Sci 2004; 45:ARVO E-Abstract 2609; FIG. 3B extends results reported in Chen J et al., Invest Ophthalmol Vis Sci 2004; 45:ARVO E-Abstract 2609; and Pharmacology Review of New Drug Application 21-275. FDA/Center for Drug Evaluation and Research. 2001;Part 1 and Part 2:1-107. Available online at http://www.fda.gov/cder/foi/nda/2001/21275_Lumigan.htm.
FIG. 4. Concentration-response curves for (FIG. 4A) bimatoprost and (FIG. 4B) latanoprost free acid in the presence or absence of indomethacin in endothelium-intact rabbit isolated jugular veins. Results are expressed as mean±S.E.M. of 7 animals and extend previous results reported in Pharmacology Review of New Drug Application 21-275. FDA/Center for Drug Evaluation and Research. 2001;Part 1 and Part 2:1-107. Available online at http://www.fda.gov/cder/foi/nda/2001/21275_Lumigan.htm.
FIG. 5. Concentration-response curves for (FIG. 5A) bimatoprost and (FIG. 5B) latanoprost free acid in the presence of 100 μM L-NAME or 100 (μM D-NAME control in endothelium-intact rabbit isolated jugular veins. Results are expressed as mean±S.E.M. of 6 animals. *P≦0.05, compared to responses in D-NAME pretreated tissues at the same concentration, paired t-test.
The pharmacological mechanism of ocular surface hyperemia elicited by bimatoprost and latanoprost was investigated using the rabbit jugular vein preparation as a quantitative in vitro model (Chen J. et al., Br J Pharmacol 1995; 116:3035-3041). In these studies, tissues were suspended in jacketed organ baths containing Krebs buffer with 1 μM indomethacin (endothelium-intact and -denuded) or in its absence (endothelium-intact) and precontracted with 3 μM histamine. Vasorelaxant and contractile activity were determined as a percentage (%) of the control tone elicited by histamine. Statistical comparisons for the vasorelaxant activity consisted of testing for significance of difference at each of the concentrations tested using the Student'-s t-test for unpaired samples (indomethacin vs no indomethacin) and paired samples (L-NAME vs D-NAME). Differences were considered statistically significant for P-values ≦0.05.
Indomethacin is a cyclooxygenase inhibitor that is routinely used in prostanoid receptor assays (Chen J et al., Current protocols in pharmacology. New York: John Wiley & Sons, Inc., 2001; 4.18.1-4.18.41). Studies of intact and viable isolated tissues, such as the rabbit jejunum (Ferreira S H, Herman A G, Vane J R., Br J Pharmacol 1976; 56:469-477) and human bronchial muscle (Haye-Legrand I, Cerrina J, Raffestin B et al., J Pharmacol Exp Ther 1986; 239:536-541), found the basal output of prostaglandins to be 8-23 pg/mg of tissue at baseline or over 30 min collection periods. In the presence of 1.7 and 2.79 μM indomethacin, the amounts of prostaglandins generated in isolated tissues become negligible (Botting J H, Salzmann R., Br J Pharmacol 1974; 50:119-124; Haye-Legrand I, Cerrina J, Raffestin B et al., J Pharmacol Exp Ther 1986; 239:536-541). The 1 μM concentration of indomethacin in the tissue bath, in our experience, is sufficient to prevent biosynthesis of prostanoids within isolated vascular tissue preparations (Alster P, Wennmalm Å., Eur J Pharmacol 1983; 86:441-446; Chen J et al., Current protocols in pharmacology. New York: John Wiley & Sons, Inc., 2001; 4.18.1-4.18.41). At substantially higher concentrations, indomethacin has been reported to lose selectivity for prostanoid biosynthesis inhibition (Aboulafia J et al., Br J Pharmacol 1976; 58:223-228; Goodfriend T L, Simpson R U., Br J Pharmacol 1981; 72:247-255; Northover B J, Br J Pharmacol 1971; 41:540-551; Sawdy R et al., Br J Pharmacol 1998; 125:1212-1217). […]

[3] = system: rabbit isolated jugular veins; details: rabbit jugular vein; cited from earlier work
[4] = system: human cultured conjunctiva-derived epithelial cells; details: cited from earlier work; for direct stimulation of inflammatory pathways involving adhesion molecules or class II antigens: in vitro; for toxicity observed: primarily related to the concentration of benzalkonium chloride
[5] = system: rabbit eye conjunctiva; details: topical dose of 10 μg (0.03%, 30 μl); cited from earlier work
[6] = system: patients with glaucoma or ocular hypertension; details: 1 year; bimatoprost 0.03% once or twice daily, timolol maleate 0.5% twice daily; subset of 310 patients; cited from earlier work
[7] = bimatoprost 0.1%, latanoprost 0.005%, PGE2 0.01%

For COC(=O)[C@H](N)CCCN=C(N)N[N+](=O)[O-] [D-NAME], the “conjunctival hyperemia or adverse ocular effects at baseline (time 0)” value [1] is listed as “did not produce conjunctival hyperemia or any adverse ocular effects”.

For COC(=O)[C@@H](N)CCCNC(=N)N[N+](=O)[O-] [L-NAME, L-N^G-nitroarginine methyl ester], the “conjunctival hyperemia or adverse ocular effects at baseline (time 0)” value [1] is listed as “did not produce conjunctival hyperemia or any adverse ocular effects”.

With O=C(O)CCC/C=C\C[C@@H]1[C@@H](CC[C@@H](O)CCc2ccccc2)[C@H](O)C[C@@H]1O [Latanoprost free acid, latanoprost free acid] the “contraction of the endothelium-denuded preparation” value ([2]; concentration range of 10^−10 to 10^−6 M) was “did not contract”, the “response in endothelium-denuded veins” value ([2]; endothelium-denuded, 10^−5M, latanoprost free acid) was “only contractions” and the “vasorelaxant response in presence of 100 μM L-NAME compared to 100 μM D-NAME control” value ([2]; endothelium-intact histamine precontracted tissues, P≦0.05 paired t-test) was “significantly inhibited”. For the same compound, the “concentration of maximal vasorelaxation” value ([2]; endothelium-intact preparation) was 10^−7 M, the “response at higher concentrations of 10^−6M and 10^−5M” value ([2]; endothelium-intact preparation) was “reversal of the relaxant effects” and the “difference in effects with and without 1 μM indomethacin” value ([2]; endothelium-intact tissues, each concentration tested) was “no statistically significant differences”.

For CCCCC[C@H](O)/C=C/[C@H]1[C@H](O)CC(=O)[C@@H]1C/C=C\CCCC(=O)O [PGE2, prostaglandin E2], the “effect of L-NAME on elicited ocular surface hyperemia” value [1, 7] is given as “had no effect” and the “ocular surface hyperemia severity” value ([1]; PGE2 0.01%, both D-NAME- and L-NAME-treated eyes, scale 0=none to 3=severe) is given as “mild to moderate”.

In the case of CCCCC[C@H](O)/C=C/[C@@H]1[C@@H](C/C=C\CCCC(=O)O)[C@@H](O)C[C@H]1O [PGF2a, prostaglandin F2a], the “inhibition of response by L-NAME at 100 μM, compared to bimatoprost and latanoprost free acid” value [3] is listed as “less effective”.

In the case of O=C(O)CCC/C=C\C[C@@H]1[C@H](CNNC(=O)Nc2ccccc2)[C@H]2CC[C@@H]1O2 [SQ 29548], the “effect of TP antagonist on reversal of the vasorelaxant response to latanoprost free acid” value ([2]; latanoprost free acid up to 10^−6 M) is reported as “did not block the reversal of the vasorelaxant response”.

For CC(C)OC(=O)CCC/C=C\C[C@@H]1[C@@H](CC[C@@H](O)CCc2ccccc2)[C@H](O)C[C@@H]1O [latanoprost], the “direct stimulation of inflammatory pathways involving adhesion molecules or class II antigens” value [4] is given as “None of the drugs appeared to induce direct stimulation of inflammatory pathways”, the toxicity observed [4] is given as “mild” and the “acute effects on blood flow in the conjunctiva” value [5] is given as “no significant acute effects”. The “ocular surface hyperemic response (severity)” value ([1]; D-NAME treated control eyes, bimatoprost 0.1%, latanoprost 0.005%, scale 0=none, 0.5=trace, 1=mild, 2=moderate, 3=severe) was “trace to mild” and the “effect of L-NAME on elicited ocular surface hyperemia” value [1, 7] was “blocked”.

In the case of CC(C)(C)NC[C@H](O)COc1nsnc1N1CCOCC1 [timolol maleate, (−)-1-tert-butylamino-3-[(4-morpholino-1,2,5-thiodiazol-3yl)oxy]-2-propanol maleate], the “mean laser-flare photometry readings and mean changes from baseline” value [6] is listed as “no significant differences among the treatment groups”.

For CC(C)OC(=O)CCC/C=C\C[C@@H]1[C@@H](/C=C/[C@@H](O)COc2cccc(C(F)(F)F)c2)[C@H](O)C[C@@H]1O [travoprost], the “direct stimulation of inflammatory pathways involving adhesion molecules or class II antigens” value [4] is given as “None of the drugs appeared to induce direct stimulation of inflammatory pathways” and the toxicity observed [4] is given as “mild”.
